From PubChem BioAssay AID248 (DTP/NCI, 2004)
“And” between values parts separate entries of the source, which are not always exact repeats. Identical values can stand only once. Inconclusive results and toxic doses are left out.

Test system: L1210 leukemia ip in BDF1 mice, survival T/C
Assay: NCI In Vivo Anticancer Drug Screen. Data for tumor model L1210 Leukemia (intraperitoneal) in B6D2F1 (BDF1) mice
Conditions: endpoint: mean survival time, higher = longer survival
Procedure, shortened: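 Value reflects the ratio of survival in compound-treated mice to survival in vehicle-treated controls, with both groups carrying the same transplanted tumor.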

[1] = dose: 10.0 mg/kg/injection, schedule: Q01DX001 (ip), vehicle: saline
[2] = dose: 50.0 mg/kg/injection, schedule: Q01DX009 (ip), vehicle: Klucel (hydroxypropylcellulose) (HPC)
[3] = dose: 100.0 mg/kg/injection, schedule: Q01DX009 (ip), vehicle: Klucel (hydroxypropylcellulose) (HPC)
[4] = dose: 100.0 mg/kg/injection, schedule: Q04DX003 (ip), vehicle: Klucel (hydroxypropylcellulose) (HPC)
[5] = dose: 200.0 mg/kg/injection, schedule: Q01DX009 (ip), vehicle: Klucel (hydroxypropylcellulose) (HPC)
[6] = dose: 200.0 mg/kg/injection, schedule: Q04DX003 (ip), vehicle: Klucel (hydroxypropylcellulose) (HPC)
[7] = dose: 400.0 mg/kg/injection, schedule: Q04DX003 (ip), vehicle: Klucel (hydroxypropylcellulose) (HPC)

Question: Which results are given for `CN(C)CC(=O)c1ccc(O)c(O)c1`?
Answer: T/C (dose: 29.5 mg/kg/injection, schedule: Q#A X Z (ip), vehicle: saline): 123 % of control; T/C (dose: 44.5 mg/kg/injection, schedule: Q#A X Z (ip), vehicle: saline): 124 % of control; T/C (dose: 50.0 mg/kg/injection, schedule: Q01DX Z (ip), vehicle: saline): 109 % of control; T/C (dose: 75.0 mg/kg/injection, schedule: Q01DX010 (ip), vehicle: saline): 112 % of control and 114 % of control; T/C (dose: 75.0 mg/kg/injection, schedule: Q01DX Z (ip), vehicle: carboxymethylcellulose (CMC)): 110 % of control; T/C (dose: 75.0 mg/kg/injection, schedule: Q01DX Z (ip), vehicle: clinical formulation): 110 % of control and 113 % of control; T/C (dose: 75.0 mg/kg/injection, schedule: Q01DX Z (ip), vehicle: water): 112 % of control; T/C (dose: 100.0 mg/kg/injection, schedule: Q01DX Z (ip), vehicle: saline): 116 % of control; T/C (dose: 133.0 mg/kg/injection, schedule: Q01DX Z (ip), vehicle: saline): 124 % of control; T/C (dose: 150.0 mg/kg/injection, schedule: Q01DX Z (ip), vehicle: carboxymethylcellulose (CMC)): 112 % of control; T/C (dose: 150.0 mg/kg/injection, schedule: Q01DX Z (ip), vehicle: clinical formulation): 116 % of control; T/C (dose: 150.0 mg/kg/injection, schedule: Q01DX Z (ip), vehicle: water): 124 % of control; T/C (dose: 150.0 mg/kg/injection, schedule: Q#A X Z (ip), vehicle: saline): 118 % of control; T/C (dose: 200.0 mg/kg/injection, schedule: Q01DX007 (iv), vehicle: saline): 104 % of control; T/C (dose: 200.0 mg/kg/injection, schedule: Q01DX Z (sc), vehicle: saline): 108 % of control; T/C (dose: 200.0 mg/kg/injection, schedule: Q## X Z (ip), vehicle: saline): 100 % of control; T/C (dose: 266.0 mg/kg/injection, schedule: Q03DX Z (ip), vehicle: saline): 123 % of control; T/C (dose: 300.0 mg/kg/injection, schedule: Q01DX007 (iv), vehicle: saline): 95 % of control; T/C (dose: 300.0 mg/kg/injection, schedule: Q01DX Z (ip), vehicle: clinical formulation): 118 % of control; T/C (dose: 300.0 mg/kg/injection, schedule: Q01DX Z (ip), vehicle: water): 116 % of control; T/C (dose: 300.0 mg/kg/injection, schedule: Q01DX Z (sc), vehicle: saline): 108 % of control; T/C (dose: 300.0 mg/kg/injection, schedule: Q## X Z (ip), vehicle: saline): 100 % of control; T/C (dose: 400.0 mg/kg/injection, schedule: Q03DX Z (ip), vehicle: saline): 117 % of control; T/C (dose: 450.0 mg/kg/injection, schedule: Q01DX Z (ip), vehicle: saline): 153 % of control; T/C (dose: 450.0 mg/kg/injection, schedule: Q01DX Z (sc), vehicle: saline): 103 % of control; T/C (dose: 450.0 mg/kg/injection, schedule: Q## X Z (ip), vehicle: saline): 100 % of control; T/C (dose: 532.0 mg/kg/injection, schedule: Q01DX Z (oral), vehicle: saline): 94 % of control; T/C (dose: 600.0 mg/kg/injection, schedule: Q03DX Z (ip), vehicle: saline): 102 % of control and 112 % of control (2×); T/C (dose: 622.0 mg/kg/injection, schedule: Q07DX Z (ip), vehicle: saline): 115 % of control; T/C (dose: 675.0 mg/kg/injection, schedule: Q01DX Z (sc), vehicle: saline): 116 % of control; T/C (dose: 675.0 mg/kg/injection, schedule: Q## X Z (ip), vehicle: saline): 102 % of control; T/C (dose: 800.0 mg/kg/injection, schedule: Q01DX Z (ip), vehicle: carboxymethylcellulose (CMC)): 102 % of control; T/C (dose: 800.0 mg/kg/injection, schedule: Q01DX Z (oral), vehicle: saline): 101 % of control and 88 % of control; T/C (dose: 933.0 mg/kg/injection, schedule: Q07DX Z (ip), vehicle: saline): 104 % of control; T/C (dose: 1200.0 mg/kg/injection, schedule: Q01DX Z (oral), vehicle: saline): 102 % of control and 106 % of control; T/C (dose: 1400.0 mg/kg/injection, schedule: Q07DX Z (ip), vehicle: saline): 113 % of control; T/C (dose: 1800.0 mg/kg/injection, schedule: Q01DX Z (oral), vehicle: saline): 100 % of control

Question: Which results are given for `COC(=O)c1ccccc1C1(c2ccccc2C(=O)OC)OC(=O)c2ccccc21`?
Answer: T/C (dose: 100.0 mg/kg/injection, schedule: Q01DX009 (ip), vehicle: saline with Tween-80): 97 % of control; T/C (dose: 100.0 mg/kg/injection, schedule: Q04DX003 (ip), vehicle: saline with Tween-80): 98 % of control; T/C (dose: 200.0 mg/kg/injection, schedule: Q01DX009 (ip), vehicle: saline with Tween-80): 101 % of control; T/C (dose: 200.0 mg/kg/injection, schedule: Q04DX003 (ip), vehicle: saline with Tween-80): 93 % of control; T/C (dose: 400.0 mg/kg/injection, schedule: Q01DX009 (ip), vehicle: saline with Tween-80): 97 % of control; T/C (dose: 400.0 mg/kg/injection, schedule: Q04DX003 (ip), vehicle: saline with Tween-80): 96 % of control

Question: Which results are given for `CN1CCc2ccccc2C1Cc1cc(OCc2ccccc2)ccc1N` (configuration not stated)?
Answer: T/C (dose: 10.0 mg/kg/injection, schedule: Q01DX001 (ip), vehicle: carboxymethylcellulose (CMC)): 89 % of control; T/C (dose: 20.0 mg/kg/injection, schedule: Q01DX001 (ip), vehicle: carboxymethylcellulose (CMC)): 95 % of control; T/C (dose: 40.0 mg/kg/injection, schedule: Q01DX001 (ip), vehicle: carboxymethylcellulose (CMC)): 93 % of control; T/C (dose: 80.0 mg/kg/injection, schedule: Q01DX001 (ip), vehicle: carboxymethylcellulose (CMC)): 98 % of control

Question: Which T/C [1] does the source give for `COC1=CC23CCNC(Cc4ccc(OC)c(O)c42)C3=CC1` (configuration not stated) here?
Answer: 101 % of control

Question: What does the source list for `O=[N+]([O-])c1ccc(Nc2ccccc2)nc1`?
Answer: T/C (dose: 50.0 mg/kg/injection, schedule: Q01DX001 (ip), vehicle: carboxymethylcellulose (CMC)): 106 % of control; T/C (dose: 100.0 mg/kg/injection, schedule: Q01DX001 (ip), vehicle: carboxymethylcellulose (CMC)): 106 % of control; T/C (dose: 200.0 mg/kg/injection, schedule: Q01DX001 (ip), vehicle: carboxymethylcellulose (CMC)): 101 % of control; T/C (dose: 400.0 mg/kg/injection, schedule: Q01DX001 (ip), vehicle: carboxymethylcellulose (CMC)): 106 % of control

Question: With `Cn1c(=O)cc(/C=C/c2ccc(-c3ccccc3)cc2)c2ccccc21` as the compound, how does the T/C (dose: 100.0 mg/kg/injection, schedule: Q01DX001 (ip), vehicle: saline) read?
Answer: 103 % of control

Question: What about the T/C (dose: 200.0 mg/kg/injection, schedule: Q01DX001 (ip), vehicle: saline) of the same compound?
Answer: 93 % of control

Question: What about the T/C (dose: 400.0 mg/kg/injection, schedule: Q01DX001 (ip), vehicle: saline) of the same compound?
Answer: 93 % of control

Question: What does the source list for `CCOC(=O)C1(Cl)OC(Cl)(Cl)C(Cl)C1Cl` (configuration not stated)?
Answer: T/C [1]: 92 % of control; T/C (dose: 20.0 mg/kg/injection, schedule: Q01DX001 (ip), vehicle: saline): 90 % of control; T/C (dose: 40.0 mg/kg/injection, schedule: Q01DX001 (ip), vehicle: saline): 103 % of control; T/C (dose: 80.0 mg/kg/injection, schedule: Q01DX001 (ip), vehicle: saline): 90 % of control

Question: How did the T/C (dose: 100.0 mg/kg/injection, schedule: Q04DX002 (ip), vehicle: Klucel (hydroxypropylcellulose) (HPC)) turn out when `COc1ccc(N=C(CCl)Nc2ccc(OC)cc2)cc1` was run?
Answer: 94 % of control

Question: What about the T/C (dose: 200.0 mg/kg/injection, schedule: Q04DX002 (ip), vehicle: Klucel (hydroxypropylcellulose) (HPC)) of the same compound?
Answer: 88 % of control

Question: And the T/C (dose: 400.0 mg/kg/injection, schedule: Q04DX002 (ip), vehicle: Klucel (hydroxypropylcellulose) (HPC))?
Answer: 109 % of control

Question: With `C=COCCCCCC(C)C` as the compound, how does the T/C [2] read?
Answer: 96 % of control

Question: What about the T/C [3] of the same compound?
Answer: 106 % of control

Question: And the T/C [4]?
Answer: 107 % of control

Question: What about the T/C [5] of the same compound?
Answer: 91 % of control

Question: And the T/C [6]?
Answer: 105 % of control

Question: And the T/C [7]?
Answer: 104 % of control

Question: Which T/C (dose: 30.0 mg/kg/injection, schedule: Q04DX002 (ip), vehicle: saline) does the source give for `COc1cc2c(cc1OC)C1(NCC2)C(=O)Nc2c(Cl)cccc21` (configuration not stated) here?
Answer: 124 % of control

Question: And the T/C (dose: 60.0 mg/kg/injection, schedule: Q04DX002 (ip), vehicle: saline)?
Answer: 113 % of control

Question: What about the T/C (dose: 120.0 mg/kg/injection, schedule: Q04DX002 (ip), vehicle: saline) of the same compound?
Answer: 117 % of control

Question: `CCOP(=O)(/C(C#N)=C/c1ccccc1)c1ccccc1` (configuration not stated) was tested. Which T/C [2] did it give?
Answer: 95 % of control

Question: And the T/C (dose: 75.0 mg/kg/injection, schedule: Q01DX009 (ip), vehicle: Klucel (hydroxypropylcellulose) (HPC))?
Answer: 96 % of control

Question: And the T/C (dose: 75.0 mg/kg/injection, schedule: Q04DX003 (ip), vehicle: Klucel (hydroxypropylcellulose) (HPC))?
Answer: 101 % of control

Question: And the T/C (dose: 150.0 mg/kg/injection, schedule: Q01DX009 (ip), vehicle: Klucel (hydroxypropylcellulose) (HPC))?
Answer: 93 % of control

Question: And the T/C (dose: 150.0 mg/kg/injection, schedule: Q04DX003 (ip), vehicle: Klucel (hydroxypropylcellulose) (HPC))?
Answer: 98 % of control

Question: What about the T/C (dose: 300.0 mg/kg/injection, schedule: Q04DX003 (ip), vehicle: Klucel (hydroxypropylcellulose) (HPC)) of the same compound?
Answer: 91 % of control

Question: What does the source list for `COc1ccccc1NC(=S)N1CCC(CCCC2CCN(C(=S)Nc3ccccc3OC)CC2)CC1`?
Answer: T/C [3]: 92 % of control; T/C [4]: 91 % of control; T/C [5]: 87 % of control; T/C [6]: 89 % of control; T/C [7]: 88 % of control
